Experimental data published in patent publication US11078202B2, “β-lactamase inhibitor and use thereof” (priority 2018, dated 2021).
Counter-ions that a name gives are not always drawn.

How the values were obtained:
Type in all cases: cell-based
[1] = test system: Pseudomonas aeruginosa XNWB 0008; assay: MIC assay of test compounds combined with imipenem (4 μg/mL); conditions: imipenem 4 μg/mL fixed
Method in brief: (§1)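 MIC values are the lowest concentrations of test compound that inhibited visible growth, read per CLSI after 16-20 h at 35±2 °C in CAMHB microdilution plates with the companion antibiotic held constant. Bacteria came from TSA cultures adjusted to OD600 0.1-0.15 and diluted 300-fold.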

[2] = test system: Acinetobacter baumannii XNWB 0007; assay: as above; conditions: imipenem 4 μg/mL fixed
Method in brief: as §1

[3] = test system: Klebsiella pneumoniae XNWB 0003; assay: as above; conditions: imipenem 4 μg/mL fixed
Method in brief: as §1

[4] = test system: Klebsiella pneumoniae XNWB 0005; assay: as above; conditions: imipenem 4 μg/mL fixed
Method in brief: as §1

[5] = test system: Klebsiella pneumoniae XNWB 0006; assay: as above; conditions: imipenem 4 μg/mL fixed
Method in brief: as §1

[6] = test system: Klebsiella pneumoniae XNWB 0001; assay: as above; conditions: imipenem 4 μg/mL fixed
Method in brief: as §1

[7] = test system: Klebsiella pneumoniae XNWB 0004; assay: as above; conditions: imipenem 4 μg/mL fixed
Method in brief: as §1

[8] = test system: Klebsiella pneumoniae XNWB 0002; assay: as above; conditions: imipenem 4 μg/mL fixed
Method in brief: as §1

[9] = test system: Pseudomonas aeruginosa XNWB 0008; assay: MIC assay of test compounds combined with ceftazidime (8 μg/mL); conditions: ceftazidime 8 μg/mL fixed
Method in brief: as §1

[10] = test system: Acinetobacter baumannii XNWB 0007; assay: as above; conditions: ceftazidime 8 μg/mL fixed
Method in brief: as §1

[11] = test system: Klebsiella pneumoniae XNWB 0003; assay: as above; conditions: ceftazidime 8 μg/mL fixed
Method in brief: as §1

[12] = test system: Klebsiella pneumoniae XNWB 0005; assay: as above; conditions: ceftazidime 8 μg/mL fixed
Method in brief: as §1

[13] = test system: Klebsiella pneumoniae XNWB 0006; assay: as above; conditions: ceftazidime 8 μg/mL fixed
Method in brief: as §1

[14] = test system: Klebsiella pneumoniae XNWB 0001; assay: as above; conditions: ceftazidime 8 μg/mL fixed
Method in brief: as §1

[15] = test system: Klebsiella pneumoniae XNWB 0004; assay: as above; conditions: ceftazidime 8 μg/mL fixed
Method in brief: as §1

[16] = test system: Klebsiella pneumoniae XNWB 0002; assay: as above; conditions: ceftazidime 8 μg/mL fixed
Method in brief: as §1

| SMILES | The minimum concentration of test compounds combined with imipenem (4 μg/mL) for bacteriostasis [1] | The minimum concentration of test compounds combined with imipenem (4 μg/mL) for bacteriostasis [2] | The minimum concentration of test compounds combined with imipenem (4 μg/mL) for bacteriostasis [3] | The minimum concentration of test compounds combined with imipenem (4 μg/mL) for bacteriostasis [4] | The minimum concentration of test compounds combined with imipenem (4 μg/mL) for bacteriostasis [5] | The minimum concentration of test compounds combined with imipenem (4 μg/mL) for bacteriostasis [6] | The minimum concentration of test compounds combined with imipenem (4 μg/mL) for bacteriostasis [7] | The minimum concentration of test compounds combined with imipenem (4 μg/mL) for bacteriostasis [8] | The minimum concentration of test compounds combined with ceftazidime (8 μg/mL) for bacteriostasis [9] | The minimum concentration of test compounds combined with ceftazidime (8 μg/mL) for bacteriostasis [10] | The minimum concentration of test compounds combined with ceftazidime (8 μg/mL) for bacteriostasis [11] | The minimum concentration of test compounds combined with ceftazidime (8 μg/mL) for bacteriostasis [12] | The minimum concentration of test compounds combined with ceftazidime (8 μg/mL) for bacteriostasis [13] | The minimum concentration of test compounds combined with ceftazidime (8 μg/mL) for bacteriostasis [14] | The minimum concentration of test compounds combined with ceftazidime (8 μg/mL) for bacteriostasis [15] | The minimum concentration of test compounds combined with ceftazidime (8 μg/mL) for bacteriostasis [16] |
| --- | --- | --- | --- | --- | --- | --- | --- | --- | --- | --- | --- | --- | --- | --- | --- | --- |
| N=C(N)NC[C@@H](O)c1nnc([C@@H]2CC3(CC3)[C@@H]3CN2C(=O)N3OS(=O)(=O)O)o1 [Example 11, (1R,4S)-4-(5-((R)-2-guanidyl-1-hydroxyethyl)-1,3,4-oxadiazol-2-yl)-6-oxo-5,7-diazaspiro[bicyclo[3.2.1]octane-2,1′-cyclopropan]-7-yl sulfate] | B (B: 8-16 μg/mL) | B (B: 8-16 μg/mL) | A (A: <8 μg/mL) | A (A: <8 μg/mL) | A (A: <8 μg/mL) | A (A: <8 μg/mL) | A (A: <8 μg/mL) | A (A: <8 μg/mL) | C (C: 16-128 μg/mL) | C (C: 16-128 μg/mL) | A (A: <8 μg/mL) | A (A: <8 μg/mL) | A (A: <8 μg/mL) | A (A: <8 μg/mL) | A (A: <8 μg/mL) | A (A: <8 μg/mL) |
| N[C@H]1C[C@@H](c2cc([C@@H]3CC4(CC4)[C@@H]4CN3C(=O)N4OS(=O)(=O)O)no2)C1 [Example 26, (1R,4S)-4-(5-((1R,3R)-3-aminocyclobutyl)isoxazol-3-yl)-6-oxo-5,7-diazaspiro[bicycle [3.2.1]octane-2,1′-cyclopropan]-7-yl sulfate] | A (A: <8 μg/mL) | C (C: 16-128 μg/mL) | A (A: <8 μg/mL) | A (A: <8 μg/mL) | A (A: <8 μg/mL) | A (A: <8 μg/mL) | A (A: <8 μg/mL) | A (A: <8 μg/mL) | B (B: 8-16 μg/mL) | C (C: 16-128 μg/mL) | A (A: <8 μg/mL) | A (A: <8 μg/mL) | A (A: <8 μg/mL) | A (A: <8 μg/mL) | A (A: <8 μg/mL) | A (A: <8 μg/mL) |
| N=C(N)NCC(O)c1nnc([C@@H]2CC3(CC3)[C@@H]3CN2C(=O)N3OS(=O)(=O)O)o1 (stereo partly drawn) [Example 10, (1R,4S)-4-(5-(2-guanidyl-1-hydroxyethyl)-1,3,4-oxadiazol-2-yl)-6-oxo-5,7-diazaspiro [bicyclo[3.2.1]octane-2,1′-cyclopropan]-7-yl sulfate] | A (A: <8 μg/mL) | A (A: <8 μg/mL) | A (A: <8 μg/mL) | A (A: <8 μg/mL) | A (A: <8 μg/mL) | A (A: <8 μg/mL) | A (A: <8 μg/mL) | A (A: <8 μg/mL) | B (B: 8-16 μg/mL) | C (C: 16-128 μg/mL) | A (A: <8 μg/mL) | A (A: <8 μg/mL) | A (A: <8 μg/mL) | A (A: <8 μg/mL) | A (A: <8 μg/mL) | A (A: <8 μg/mL) |
| NCCCc1nnc([C@@H]2CC3(CC3)[C@@H]3CN2C(=O)N3OS(=O)(=O)O)o1 [Example 6, sodium (1R,4S)-4-(5-(3-aminopropyl)-1,3,4-oxadiazol-2-yl)-6-oxo-5,7-diazaspiro [bicycle[3.2.1]octane-2,1′-cyclopropan]-7-yl sulfate] | B (B: 8-16 μg/mL) | B (B: 8-16 μg/mL) | A (A: <8 μg/mL) | A (A: <8 μg/mL) | A (A: <8 μg/mL) | A (A: <8 μg/mL) | A (A: <8 μg/mL) | A (A: <8 μg/mL) | C (C: 16-128 μg/mL) | C (C: 16-128 μg/mL) | B (B: 8-16 μg/mL) | B (B: 8-16 μg/mL) | A (A: <8 μg/mL) | A (A: <8 μg/mL) | B (B: 8-16 μg/mL) | A (A: <8 μg/mL) |
| N=C(N)NCCc1nnc([C@@H]2CC3(CC3)[C@@H]3CN2C(=O)N3OS(=O)(=O)O)o1 [Example 5, (1R,4S)-4-(5-(2-guanidinoethyl)-1,3,4-oxadiazol-2-yl)-6-oxo-5,7-diazaspiro[bicycle [3.2.1]octane-2,1′-cyclopropan]-7-yl sulfate] | B (B: 8-16 μg/mL) | B (B: 8-16 μg/mL) | A (A: <8 μg/mL) | A (A: <8 μg/mL) | A (A: <8 μg/mL) | A (A: <8 μg/mL) | A (A: <8 μg/mL) | A (A: <8 μg/mL) | C (C: 16-128 μg/mL) | C (C: 16-128 μg/mL) | A (A: <8 μg/mL) | B (B: 8-16 μg/mL) | A (A: <8 μg/mL) | A (A: <8 μg/mL) | B (B: 8-16 μg/mL) | A (A: <8 μg/mL) |
